Patent publication US20070232647A1, “Use of Ppar Agonists to Treat Ruminants” (priority 2004, published 2007)

Key:
[1] = tested on: Holstein cows; experiment: Average daily milk yield over sixty days after calving; format: in vivo; details: approximately 0.5 mg/kg SC on day of calving and day five post-calving, increased from 41.8 (placebo), p=0.052, FIG. 6
Description: One hundred twenty four pregnant, non-lactating Holstein cows were allocated to two treatment groups (placebo and COMPOUND (at approximately 0.5 mg/kg). In this Example COMPOUND is (3S)-3-[3-(1-Carboxy-1-methyl-ethoxy)-phenyl]-piperidine-1-carboxylic acid, 4-trifluoromethyl-benzyl ester. Animals were allowed to calve, treated by subcutaneous injection on the day of calving and on day five post-calving. Disease events and daily milk production were recorded for the following sixty days. The average daily milk yield in the treated cows was increased from 41.8 to 43.2 kg/day (p=0.052). Results are shown in FIG. 6.

[2] = tested on: mid-lactation cows; experiment: Serum glucose levels, Example 1: PK/PD of two PPAR alpha agonists given IV and SC; format: in vivo; details: 0.5 mg/kg IV or SC, regardless of route of administration; blood samples up to 72 hours; FIG. 1
Description: Both compounds were administered by IV and SC routes, as outlined in the table below.
All animals were bled one day prior, and 15 minutes prior, to compound administration. Blood samples were collected from animals treated via IV at 5 and 10 minutes post compound administration. Blood samples were collected from all animals at 0.5, 1, 2, 4, 6, 24, 30, 48, 54, and 72 hours post compound administration. Samples were analyzed for glucose concentrations using a Dade Behring Dimension RXL serum chemistry analyzer. […] Other commercially available, standard apparatus for testing glucose levels can also be used.

CC(C)(Oc1cccc([C@@H]2CCCN(C(=O)OCc3ccc(C(F)(F)F)cc3)C2)c1)C(=O)O [Compound A, (3S)-3-[3-(1-Carboxy-1-methyl-ethoxy)-phenyl]-piperidine-1-carboxylic acid 4-trifluoromethyl-benzyl ester]
average daily milk yield [1]: 43.2 kg/day

Cc1ccc(-c2ccc(NS(=O)(=O)c3ccc(C)c(C(=O)O)c3)cc2)cc1 [Compound X, 2-Methyl-5-(4′-methyl-biphenyl-4-ylsulfamoyl)-benzoic acid]
glucose concentration relative to baseline values [2]: increase in glucose
